Results reported in patent publication US8901118B2, “Compounds and methods for kinase modulation, and indications therefor” (Plexxikon Inc., priority 2010, dated 2014).

Tests used:
BCR-FMS BaF3 cells = molecular target: T1, BCR-FMS BaF3 cells (Homo sapiens, UniProt P07333); assay: BaF3 BCR-FMS cell proliferation assay (ATPlite); type: cell-based; details: read-out: Inhibition of Cell Proliferation IC50, BCR/BaF3 Fms
T1 construct: fused on or other part: P11274 (Breakpoint cluster region protein)
T1 sequence (P07333 582-910): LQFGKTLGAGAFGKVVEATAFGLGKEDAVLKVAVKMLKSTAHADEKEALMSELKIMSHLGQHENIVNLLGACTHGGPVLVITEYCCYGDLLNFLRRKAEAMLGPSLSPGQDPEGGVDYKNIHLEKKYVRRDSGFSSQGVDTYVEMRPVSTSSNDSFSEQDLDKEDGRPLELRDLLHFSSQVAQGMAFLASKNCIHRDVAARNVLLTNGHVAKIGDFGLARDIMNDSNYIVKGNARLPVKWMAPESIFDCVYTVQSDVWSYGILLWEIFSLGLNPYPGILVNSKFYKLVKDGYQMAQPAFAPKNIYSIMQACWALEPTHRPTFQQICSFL
Summary of the method: (§1)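 For these proliferation assays, engineered BaF3 cells (10,000/well, IL-3 withdrawn) and MV-4-11 cells (25,000/well) received compound serially diluted 1:3 from 10 μM over 8 points, with DMSO as control. After three days of culture, ATP content was measured by luminescence to derive IC50.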

CYP2C9 = CYP2C9 (Homo sapiens, UniProt P11712); assay: CYP2C9 inhibition (fluorescent substrate MFC); type: in vitro ADME; details: read-out: Cyp IC50 2C9
Summary of the method: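 IC50 derives from metabolite fluorescence against compound concentration, read at excitation 409 nm and emission 460 nm for CYP1A2/2C19 or 530 nm for CYP2C9/2D6. Incubations ran at 37° C for 15 min (1A2), 45 min (2C9) or 30 min (2C19, 2D6), after serial dilution into NADPH cofactor mix and 10 min preincubation.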

BCR-NTRK3 BaF3 cells = molecular target: T2, BCR-NTRK3 BaF3 cells (Homo sapiens, UniProt Q16288); assay: BaF3 BCR-NTRK3 cell proliferation assay (ATPlite); type: cell-based; details: read-out: Inhibition of Cell Proliferation IC50, BCR/BaF3 TrkC
T2 construct: fused on or other part: P11274 (Breakpoint cluster region protein)
Summary of the method: as §1

CYP2C9, sequence (P11712 whole entry): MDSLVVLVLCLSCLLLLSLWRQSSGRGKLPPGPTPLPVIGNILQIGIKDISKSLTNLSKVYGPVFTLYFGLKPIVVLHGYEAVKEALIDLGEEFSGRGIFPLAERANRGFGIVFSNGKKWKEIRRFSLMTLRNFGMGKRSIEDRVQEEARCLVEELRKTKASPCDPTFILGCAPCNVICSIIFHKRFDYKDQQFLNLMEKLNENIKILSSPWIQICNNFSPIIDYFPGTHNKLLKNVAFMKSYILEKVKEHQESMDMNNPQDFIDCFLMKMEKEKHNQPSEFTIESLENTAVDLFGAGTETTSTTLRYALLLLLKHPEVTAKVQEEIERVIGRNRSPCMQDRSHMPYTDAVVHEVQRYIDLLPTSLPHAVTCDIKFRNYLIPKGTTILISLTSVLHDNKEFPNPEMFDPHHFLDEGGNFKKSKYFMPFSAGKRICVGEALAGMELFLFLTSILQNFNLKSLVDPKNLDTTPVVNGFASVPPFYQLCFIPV
T2 sequence (Q16288 whole entry, the tested form may be a part): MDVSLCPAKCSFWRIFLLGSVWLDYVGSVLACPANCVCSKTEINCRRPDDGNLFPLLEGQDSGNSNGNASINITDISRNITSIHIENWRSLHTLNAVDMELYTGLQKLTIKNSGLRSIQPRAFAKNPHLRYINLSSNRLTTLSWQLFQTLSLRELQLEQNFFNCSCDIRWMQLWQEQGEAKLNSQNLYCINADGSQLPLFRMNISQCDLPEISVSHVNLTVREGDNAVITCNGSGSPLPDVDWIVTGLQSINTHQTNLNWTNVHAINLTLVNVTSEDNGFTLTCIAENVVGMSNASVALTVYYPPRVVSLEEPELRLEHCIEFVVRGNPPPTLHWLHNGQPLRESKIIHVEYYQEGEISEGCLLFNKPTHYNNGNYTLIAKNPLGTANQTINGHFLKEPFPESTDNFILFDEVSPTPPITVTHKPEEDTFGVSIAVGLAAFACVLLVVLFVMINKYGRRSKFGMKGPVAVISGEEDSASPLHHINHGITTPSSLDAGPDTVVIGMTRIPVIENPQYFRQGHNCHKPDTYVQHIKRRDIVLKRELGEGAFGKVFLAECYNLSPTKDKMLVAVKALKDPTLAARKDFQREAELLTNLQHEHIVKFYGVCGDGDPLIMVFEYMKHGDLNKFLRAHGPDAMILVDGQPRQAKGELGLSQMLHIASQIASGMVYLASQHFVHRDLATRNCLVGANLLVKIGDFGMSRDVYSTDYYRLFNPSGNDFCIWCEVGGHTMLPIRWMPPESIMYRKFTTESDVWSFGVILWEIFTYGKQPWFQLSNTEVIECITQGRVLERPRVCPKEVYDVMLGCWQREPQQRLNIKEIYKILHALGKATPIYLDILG

Row | SMILES | IC50 (BCR-FMS BaF3 cells) [nM] | IC50 (CYP2C9) [nM] | IC50 (BCR-NTRK3 BaF3 cells) [nM]
1 | O=C(c1ccc(Nc2ccc(C(F)(F)F)nc2)nc1F)c1c[nH]c2ncnc(NC3CC3)c12 [Compound P-4091, [4-(cyclopropylamino)-7H-pyrrolo[2,3-d]pyrimidin-5-yl]-[2-fluoro-6-[[6-(trifluoromethyl)-3-pyridyl]amino]-3-pyridyl]methanone] | < 10 | > 10000 | < 10
2 | O=C(c1ccc(NC2CCC(F)(F)CC2)nc1)c1c[nH]c2ncnc(NC3CC3)c12 [Compound P-4088, [4-(cyclopropylamino)-7H-pyrrolo[2,3-d]pyrimidin-5-yl]-[6-[(4,4-difluorocyclohexyl)amino]-3-pyridyl]methanone] | < 100 | > 10000 | < 10
3 | COc1ccc(Nc2ccc(C(=O)c3c[nH]c4ncnc(NC5CCC(F)(F)CC5)c34)c(F)n2)cn1 [Compound P-4056, [4-[(4,4-difluorocyclohexyl)amino]-7H-pyrrolo[2,3-d]pyrimidin-5-yl]-[2-fluoro-6-[(6-methoxy-3-pyridyl)amino]-3-pyridyl]methanone] | < 1000 | > 10000 | < 10
4 | Fc1ccc(Nc2ncc(Cc3c[nH]c4ncc(Cl)cc34)cn2)cc1 [Compound P-3012, [5-(5-Chloro-1H-pyrrolo[2,3-b]pyridin-3-ylmethyl)-pyrimidin-2-yl]-(4-fluoro-phenyl)-amine] | < 100 | > 10000 | < 1000
5 | O=C(c1ccc(Nc2ccc(C3CC3)nc2)nc1F)c1c[nH]c2ncnc(NC3CC3)c12 [Compound P-4093, [4-(cyclopropylamino)-7H-pyrrolo[2,3-d]pyrimidin-5-yl]-[6-[(6-cyclopropyl-3-pyridyl)amino]-2-fluoro-3-pyridyl]methanone] | < 10 | > 10000 | < 10
6 | O=C(c1ccc(NC2CCC(F)(F)CC2)nc1F)c1c[nH]c2ncnc(NC3CC3)c12 [Compound P-4062, [4-(cyclopropylamino)-7H-pyrrolo[2,3-d]pyrimidin-5-yl]-[6-[(4,4-difluorocyclohexyl)amino]-2-fluoro-3-pyridyl]methanone] | < 100 | > 10000 | < 10
7 | CCN1CCC(Nc2ncnc3[nH]cc(C(=O)c4ccc(Nc5ccc(OC)nc5)nc4F)c23)CC1 [Compound P-4074, [4-[(1-ethyl-4-piperidyl)amino]-7H-pyrrolo[2,3-d]pyrimidin-5-yl]-[2-fluoro-6-[(6-methoxy-3-pyridyl)amino]-3-pyridyl]methanone] | < 1000 | > 10000 | < 10
8 | CCc1ccc(Nc2ccc(C(=O)c3c[nH]c4ncnc(NCC(F)(F)F)c34)c(F)n2)cn1 [Compound P-4120, [6-[(6-ethyl-3-pyridyl)amino]-2-fluoro-3-pyridyl]-[4-(2,2,2-trifluoroethylamino)-7H-pyrrolo[2,3-d]pyrimidin-5-yl]methanone] | < 100 | < 5000 | < 10
9 | O=C(c1ccc(NC2CCC(F)(F)CC2)nc1Cl)c1c[nH]c2ncnc(NCC(F)(F)F)c12 [Compound P-4057, [2-chloro-6-[(4,4-difluorocyclohexyl)amino]-3-pyridyl]-[4-(2,2,2-trifluoroethylamino)-7H-pyrrolo[2,3-d]pyrimidin-5-yl]methanone] | < 1000 | > 10000 | < 1000
10 | Clc1ccc(Nc2ncc(Cc3c[nH]c4ncc(Cl)cc34)cn2)cc1 [Compound P-3011, (4-Chloro-phenyl)-[5-(5-chloro-1H-pyrrolo[2,3-b]pyridin-3-ylmethyl)-pyrimidin-2-yl]-amine] | < 100 | > 10000 | < 100
11 | CCc1ccc(Nc2ccc(C(=O)c3c[nH]c4ncnc(NC5CCOCC5)c34)c(F)n2)cn1 [Compound P-4116, [6-[(6-ethyl-3-pyridyl)amino]-2-fluoro-3-pyridyl]-[4-(tetrahydropyran-4-ylamino)-7H-pyrrolo[2,3-d]pyrimidin-5-yl]methanone] | < 10 | > 10000 | < 10
12 | O=C(c1ccc(Nc2ccc(C3CC3)nc2)nc1F)c1c[nH]c2ncnc(NCC(F)(F)F)c12 [Compound P-4090, [6-[(6-cyclopropyl-3-pyridyl)amino]-2-fluoro-3-pyridyl]-[4-(2,2,2-trifluoroethylamino)-7H-pyrrolo[2,3-d]pyrimidin-5-yl]methanone] | < 100 | > 10000 | < 10

Results, then the compound that gave them:

Row | IC50 (BCR-FMS BaF3 cells) [nM] | IC50 (CYP2C9) [nM] | IC50 (BCR-NTRK3 BaF3 cells) [nM] | SMILES
13 | < 10 | > 10000 | < 10 | CCNc1ncnc2[nH]cc(C(=O)c3ccc(Nc4ccc(C5CC5)nc4)nc3F)c12 [Compound P-4060, [6-[(6-cyclopropyl-3-pyridyl)amino]-2-fluoro-3-pyridyl]-[4-(ethylamino)-7H-pyrrolo[2,3-d]pyrimidin-5-yl]methanone]
14 | < 10 | > 10000 | < 10 | COc1ccc(Nc2ccc(C(=O)c3c[nH]c4ncnc(NC5CCCCC5)c34)c(F)n2)cn1 [Compound P-4082, [4-(cyclohexylamino)-7H-pyrrolo[2,3-d]pyrimidin-5-yl]-[2-fluoro-6-[(6-methoxy-3-pyridyl)amino]-3-pyridyl]methanone]
15 | < 10 | > 10000 | < 10 | CCc1ccc(Nc2ccc(C(=O)c3c[nH]c4ncnc(NCC(C)C)c34)c(F)n2)cn1 [Compound P-4121, [6-[(6-ethyl-3-pyridyl)amino]-2-fluoro-3-pyridyl]-[4-(isobutylamino)-7H-pyrrolo[2,3-d]pyrimidin-5-yl]methanone]
16 | < 10 | > 10000 | < 10 | CCc1ccc(Nc2ccc(C(=O)c3c[nH]c4ncnc(NC5CC5)c34)c(F)n2)cn1 [Compound P-4125, [4-(cyclopropylamino)-7H-pyrrolo[2,3-d]pyrimidin-5-yl]-[6-[(6-ethyl-3-pyridyl)amino]-2-fluoro-3-pyridyl]methanone]
17 | < 10 | > 10000 | < 10 | CCc1ccc(Nc2ccc(C(=O)c3c[nH]c4ncnc(NC5CCC5)c34)c(F)n2)cn1 [Compound P-4095, [4-(cyclobutylamino)-7H-pyrrolo[2,3-d]pyrimidin-5-yl]-[6-[(6-ethyl-3-pyridyl)amino]-2-fluoro-3-pyridyl]methanone]
18 | < 100 | < 5000 | < 100 | CNc1ncnc2[nH]cc(C(=O)c3ccc(Nc4cncc(OC)c4)nc3F)c12 [Compound P-4108, [2-fluoro-6-[(5-methoxy-3-pyridyl)amino]-3-pyridyl]-[4-(methylamino)-7H-pyrrolo[2,3-d]pyrimidin-5-yl]methanone]
19 | < 100 | < 5000 | < 10 | COc1cncc(Nc2ccc(C(=O)c3c[nH]c4ncnc(NC(C)C)c34)c(F)n2)c1 [Compound P-4106, [2-fluoro-6-[(5-methoxy-3-pyridyl)amino]-3-pyridyl]-[4-(isopropylamino)-7H-pyrrolo[2,3-d]pyrimidin-5-yl]methanone]
20 | < 10 | 5000 to 10000 | < 10 | CCCNc1ncnc2[nH]cc(C(=O)c3ccc(Nc4ccc(CC)nc4)nc3F)c12 [Compound P-4122, [6-[(6-ethyl-3-pyridyl)amino]-2-fluoro-3-pyridyl]-[4-(propylamino)-7H-pyrrolo[2,3-d]pyrimidin-5-yl]methanone]
21 | < 100 | > 10000 | < 10 | CCCCNc1ncnc2[nH]cc(C(=O)c3ccc(Nc4ccc(OC)nc4)nc3F)c12 [Compound P-4080, [4-(butylamino)-7H-pyrrolo[2,3-d]pyrimidin-5-yl]-[2-fluoro-6-[(6-methoxy-3-pyridyl)amino]-3-pyridyl]methanone]
22 | < 10 | < 5000 | < 10 | CNc1ncnc2[nH]cc(C(=O)c3ccc(Nc4ccc(C)nc4)nc3F)c12 [Compound P-4115, [2-fluoro-6-[(6-methyl-3-pyridyl)amino]-3-pyridyl]-[4-(methylamino)-7H-pyrrolo[2,3-d]pyrimidin-5-yl]methanone]
23 | < 10 | > 10000 | < 10 | COc1ccc(Nc2ccc(C(=O)c3c[nH]c4ncnc(NC5CC5)c34)c(F)n2)cn1 [Compound P-4126, [4-(cyclopropylamino)-7H-pyrrolo[2,3-d]pyrimidin-5-yl]-[2-fluoro-6-[(6-methoxy-3-pyridyl)amino]-3-pyridyl]methanone]
24 | < 100 | > 10000 | < 10 | COc1ccc(Nc2ccc(C(=O)c3c[nH]c4ncnc(NC5CCC5)c34)c(F)n2)cn1 [Compound P-4076, [4-(cyclobutylamino)-7H-pyrrolo[2,3-d]pyrimidin-5-yl]-[2-fluoro-6-[(6-methoxy-3-pyridyl)amino]-3-pyridyl]methanone]
